Values quoted from earlier work in publication PMC2874326 (Bioconjugate chemistry, 2010).

Test system: cells
Conditions: relative to Tat and unmodified poly-arginine cell penetrating peptides

C14-βAla-(Arg)7-Cys(SH)-NH2 [MPAP]
enhancement of peptide entry into cells by myristoylation: several-fold
